Data taken from paper PMC8286840, “Identifying SARS-CoV-2 antiviral compounds by screening for small molecule inhibitors of Nsp3 papain-like protease” (Biochemical Journal, 2021).
Structures can show the parent of a compound that is named as a salt. Where two headings read alike, the source gives them in different places.

Columns and labels:
[1] = molecular target: T1, SARS-CoV-2 PLpro (nsp3 1564–1878) (Severe acute respiratory syndrome coronavirus 2, UniProt P0DTD1); test: biochemical; parameters: FRET-quenched peptide (Pro3) cleavage by PLpro, 10 min pre-incubation, slope over 20 min, normalised to no-compound control; details: read-out: % of control remaining
[2] = molecular target: T1, SARS-CoV-2 PLpro (nsp3 1564–1878); test: biochemical; parameters: FRET-quenched peptide (Pro3) cleavage by PLpro, 10 min pre-incubation, slope over 20 min, normalised to no-compound control; details: read-out: % of control remaining; remark: listed apart in the source

CCS(=O)(=O)c1cccc(-c2cc(C(=O)NC3CCN(C)CC3)c(C)c3[nH]c4ncc(C)cc4c23)c1 [TAK-901]
remaining activity at 3.75 µM ([1]; Well no.=4691, high concentration screen): 100%
remaining activity at 1.25 µM ([2]; Well no.=4691, low concentration screen): 96.9%

Brc1c(Br)c(Br)c2n[nH]nc2c1Br [TBB - 4,5,6,7-Tetrabromobenzotriazole]
remaining activity at 3.75 µM ([1]; Well no.=2494, high concentration screen): 103%
remaining activity at 1.25 µM ([2]; Well no.=2494, low concentration screen): 100%

O=C1OC(/C=C/c2ccccc2)=NC/1=C/c1cccnc1 [TC-DAPK 6]
remaining activity at 3.75 µM ([1]; Well no.=6734, high concentration screen): 90.3%
remaining activity at 1.25 µM ([2]; Well no.=6734, low concentration screen): 96.1%

CNc1nc(NCc2ccc(NS(C)(=O)=O)cc2Cl)cc(-c2ccccn2)n1 [TC-G-1008]
remaining activity at 3.75 µM ([1]; Well no.=7769, high concentration screen): 95.1%
remaining activity at 1.25 µM ([2]; Well no.=7769, low concentration screen): 98.1%

Nc1nccc(/C=C/c2ccccc2)n1 [TCN238]
remaining activity at 3.75 µM ([1]; Well no.=7855, high concentration screen): 94.5%
remaining activity at 1.25 µM ([2]; Well no.=7855, low concentration screen): 99.5%

O=C(NNC(=O)c1ccc(CNS(=O)(=O)c2ccc(F)c(Cl)c2)cc1)c1ccccc1 [TCN-201]
remaining activity at 3.75 µM ([1]; Well no.=5514, high concentration screen): 97.4%
remaining activity at 1.25 µM ([2]; Well no.=5514, low concentration screen): 96.4%

Clc1cnc(Oc2ccc(Oc3ncc(Cl)cc3Cl)cc2)c(Cl)c1 [TCPOBOP]
remaining activity at 3.75 µM ([1]; Well no.=1425, high concentration screen): 102%
remaining activity at 1.25 µM ([2]; Well no.=1425, low concentration screen): 102%

COc1ccc(C(=O)Nc2sc3c(c2C(N)=O)CCCC3)cc1OC [TCS 359 - 2-[(3,4-Dimethoxybenzoyl)amino]-4,5,6,7-benzo[b]thiophene-3-carboxamide]
remaining activity at 3.75 µM ([1]; Well no.=2580, high concentration screen): 90%
remaining activity at 1.25 µM ([2]; Well no.=2580, low concentration screen): 93.7%

Cn1c(SCC(=O)N2CCC[C@H]2C(=O)Nc2ccccc2-c2ccccc2)nc2ccccc21 [TCS 1102]
remaining activity at 3.75 µM ([1]; Well no.=8429, high concentration screen): 98.6%
remaining activity at 1.25 µM ([2]; Well no.=8429, low concentration screen): 98.6%

COc1cc2c(cc1OC)CN(C(=O)[C@@H](NCc1ccncc1)C(C)(C)C)CC2 [TCS-OX2-29]
remaining activity at 3.75 µM ([1]; Well no.=6993, high concentration screen): 101%
remaining activity at 1.25 µM ([2]; Well no.=6993, low concentration screen): 107%

CC1(C)CC(O)CC(C)(C)N1[O] [TEMPOL]
remaining activity at 3.75 µM [1]: 95.9%
remaining activity at 1.25 µM [2]: 93.1%

CC1(C)CCCC(C)(C)N1[O] [TEMPO]
remaining activity at 3.75 µM [1]: 99.1%
remaining activity at 1.25 µM [2]: 95.5%

CCSC(N)=Nc1ccc(C(F)(F)F)cc1 [TFPI hydrochloride]
remaining activity at 3.75 µM ([1]; Well no.=1389, high concentration screen): 93.8%
remaining activity at 1.25 µM ([2]; Well no.=1389, low concentration screen): 95.8%

Nc1nc(N)c2nc(-c3cccc(O)c3)c(-c3cccc(O)c3)nc2n1 [TG100-115]
remaining activity at 3.75 µM ([1]; Well no.=4846, high concentration screen): 99.1%
remaining activity at 1.25 µM ([2]; Well no.=4846, low concentration screen): 99.1%

Cc1cnc(Nc2ccc(N3CCN(C)CC3)cc2)nc1Nc1cccc(S(=O)(=O)NC(C)(C)C)c1 [TG101209]
remaining activity at 3.75 µM ([1]; Well no.=2805, high concentration screen): 96.7%
remaining activity at 1.25 µM ([2]; Well no.=2805, low concentration screen): 94%

Cc1cnc(Nc2ccc(OCCN3CCCC3)cc2)nc1Nc1cccc(S(=O)(=O)NC(C)(C)C)c1 [TG101348]
remaining activity at 3.75 µM ([1]; Well no.=2853, high concentration screen): 98.3%
remaining activity at 1.25 µM ([2]; Well no.=2853, low concentration screen): 95.4%

O=c1[nH]oc2c1CCNC2 [THIP hydrochloride]
remaining activity at 3.75 µM ([1]; Well no.=1328, high concentration screen): 97.2%
remaining activity at 1.25 µM ([2]; Well no.=1328, low concentration screen): 96.3%
